Reference: patent publication US20110195432A1, “METHODS FOR THE SELECTION OF THERAPEUTIC TREATMENTS FOR CANCER” (priority 2008, published 2011)
“Also recorded” adds a separate entry of the source.

Legend:
[1] = system: AR; experiment: Western blot of AR protein levels, LNCaP cells; type: cell-based
Experimental: (§1) Immunoprecipitation and immunoblotting were performed as described (Qian et al., Clin. Cancer Res. 12:634-42, 2006). The following antibodies used in immunoblotting or immunoprecipitations (indicated dilutions are for immunoblotting): AR (1:1000, #06-680 Upstate, Billerica, Mass.); acetylated lysine (#05-515 Upstate, Billerica, Mass.); acetylated tubulin (1:2000, #T6793 Sigma, St. Louis, Mo.); alpha-tubulin (1:10,000, #T6074 Sigma, St. Louis, Mo.); beta-actin (1:5000, #A5441 Sigma, St. Louis, Mo.); ERG-1/2/3, (1:5000, #sc-354X Santa Cruz, Santa Cruz, Calif.); FLAG epitope (#F7425 Sigma, St. Louis, Mo.); GAPDH (1:5000, #sc-32233 Santa Cruz, Santa Cruz, Calif.); HDAC6 (1:1000, #sc-11420 Santa Cruz); HSP90 (1:1000, #SPA-840 Stressgen, Ann Arbor, Mich.); mouse IgG (#sc-2025 Santa Cruz, Santa Cruz, Calif.). The following secondary antibodies were used: ECL-conjugated anti-mouse IgG, (1:5000, #A6782 Sigma, St. Louis, Mo.); ECL-conjugated anti-rabbit IgG (1:3000, #NA934 Amersham, Piscataway, N.J. or 1:10,000, #sc-2004 Santa Cruz, Santa Cruz, Calif.). X-ray exposures were scanned as uncompressed images and bands were quantified by densitometry with Quantity One software (Bio-Rad, Hercules, Calif.). Intensity values were normalized to those of the endogenous controls. The vehicle sample was set to 1. Enrichment was calculated as: (intensity IP/intensity input)/(intensity IgG/intensity input) or intensity IP/input (FIG. 1B).
LNCaP cells were treated with sulforaphane in a dose-response (5 μM to 20 μM) and time-course (12 and 24 hours) manner to investigate the effect of HDAC6 inhibition on AR protein levels. Western blotting was performed as described in Example 1. […]

[2] = system: AR; experiment: Real-time PCR of AR gene expression, LNCaP cells; type: cell-based
Text: (§2) All samples were run in triplicate. The vehicle-treated sample was set to 1.

[3] = system: AR; experiment: Real-time PCR of AR gene expression, VCaP cells; type: cell-based
Text: as §2

[4] = system: ERG; conditions: VCaP cells; 20 μM sulforaphane, 24 hours; treated in parallel with ChIP
Experimental: as §1, with “The vehicle sample was set to 1.” left out

[5] = system: acetylated alpha-tubulin; experiment: Western blot of acetylated alpha-tubulin, LNCaP cells; type: cell-based
Experimental: The vehicle sample was set to 1.
LNCaP cells were transiently transfected with either a siRNA sequence complementary to the luciferase gene ([…]; SEQ ID NO: 8) or to HDAC6 ([…]; SEQ ID NO: 9) using DharmaFECT 3 transfection reagent for a final concentration of 100 nM (Dharmacon, Lafayette, Colo.). At 48, 72, and 96 hours post-transfection, cells were harvested. Levels of protein expression by Western blot were quantified.

[6] = target: T1, recombinant HDAC6 (Homo sapiens, UniProt Q9UBN7); conditions: cell-free; 7.5 or 15 μM sulforaphane, or 400 nM TSA; versus vehicle-treated HDAC6 control
T1 sequence (Q9UBN7 1-1215): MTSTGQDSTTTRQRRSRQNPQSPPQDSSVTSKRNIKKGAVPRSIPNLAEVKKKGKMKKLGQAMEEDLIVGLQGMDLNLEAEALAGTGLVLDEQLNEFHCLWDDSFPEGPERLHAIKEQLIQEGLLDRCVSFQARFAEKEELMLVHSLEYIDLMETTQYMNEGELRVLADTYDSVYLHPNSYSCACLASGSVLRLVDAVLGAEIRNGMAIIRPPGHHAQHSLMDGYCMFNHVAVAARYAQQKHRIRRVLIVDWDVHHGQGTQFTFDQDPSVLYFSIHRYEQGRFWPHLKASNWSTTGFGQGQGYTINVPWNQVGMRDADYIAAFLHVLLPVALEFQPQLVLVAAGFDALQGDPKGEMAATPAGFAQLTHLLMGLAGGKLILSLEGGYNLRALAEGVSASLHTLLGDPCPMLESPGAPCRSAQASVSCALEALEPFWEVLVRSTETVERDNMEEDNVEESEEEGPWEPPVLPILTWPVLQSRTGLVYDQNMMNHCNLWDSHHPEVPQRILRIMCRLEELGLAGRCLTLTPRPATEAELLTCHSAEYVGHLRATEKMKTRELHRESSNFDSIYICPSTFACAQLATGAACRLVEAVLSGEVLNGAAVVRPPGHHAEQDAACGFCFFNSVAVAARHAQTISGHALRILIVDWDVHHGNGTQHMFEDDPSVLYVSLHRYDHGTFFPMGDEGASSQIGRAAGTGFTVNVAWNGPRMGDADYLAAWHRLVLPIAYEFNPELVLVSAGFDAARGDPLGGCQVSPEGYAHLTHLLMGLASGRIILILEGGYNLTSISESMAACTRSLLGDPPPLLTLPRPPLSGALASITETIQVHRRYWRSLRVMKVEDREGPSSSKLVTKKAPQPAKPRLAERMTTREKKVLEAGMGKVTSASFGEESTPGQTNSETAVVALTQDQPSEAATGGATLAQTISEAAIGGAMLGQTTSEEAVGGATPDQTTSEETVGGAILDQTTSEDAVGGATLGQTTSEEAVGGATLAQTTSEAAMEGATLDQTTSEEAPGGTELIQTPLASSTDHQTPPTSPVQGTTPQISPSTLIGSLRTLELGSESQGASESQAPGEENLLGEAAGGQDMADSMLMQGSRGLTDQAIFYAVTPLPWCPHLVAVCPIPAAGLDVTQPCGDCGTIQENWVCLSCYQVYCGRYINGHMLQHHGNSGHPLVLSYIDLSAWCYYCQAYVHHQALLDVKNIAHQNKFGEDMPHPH

[7] = system: AR; experiment: Western blot of AR protein levels, LNCaP cells; type: cell-based; remark: listed apart in the source
[8] = FLAG-HDAC6 transfected LNCaP cells, sulforaphane-treated, versus empty-vector, sulforaphane-treated cells
[9] = empty-vector transfected LNCaP cells, 16-hour treatment with 15 nM sulforaphane versus vehicle

## C[S+]([O-])CCCCN=C=S (centres unmarked) [sulforaphane, 1-Isothiocyanato-4-methylsulfinylbutane]
[1]; 24 hours, sulforaphane 20 μM or 300 nM TSA with 10 μM MG132
  AR steady state level with simultaneous MG132 treatment: restored the AR steady state level close to that seen in the vehicle-treated control
[1]; 24 hours, sulforaphane 20 μM or 300 nM TSA, versus vehicle-treated cells
  AR protein in the absence of MG132: dramatic reductions
[1]; sulforaphane 15 μM and 20 μM, TSA
  AR protein levels at 24 hours: persisted
[2]; 20 μM
  AR transcript levels at highest dose: declined
[2]; increasing doses of sulforaphane, or TSA, vehicle set to 1
  AR transcripts: not consistently suppressed
[3]; 15-20 μM
  AR transcript levels at highest doses: declined
[3]; 24 hours, increasing doses of sulforaphane, or TSA, vehicle set to 1
  AR transcripts: not consistently suppressed
[4]
  levels of ERG protein in whole cell lysates: near absent levels
[5]; [8]
  alpha-tubulin acetylation in HDAC6-over-expressing cells: blunted
[5]; [9]
  acetylated tubulin: increased
[5]; sulforaphane 20 μM, 4 hours, versus vehicle
  levels of acetylated tubulin in input whole cell lysate: increased levels of acetylated alpha-tubulin
[6]
  HDAC6 deacetylase activity on tubulin: decreased HDAC6 deacetylase activity; also recorded: inhibited HDAC6 deacetylase activity
[7]; 4 hour treatment, vehicle versus sulforaphane
  levels of AR in input whole cell lysate: similar
[7]; [8]
  AR protein depletion in HDAC6-over-expressing cells: attenuated
[7]; LNCaP cells, 12 hours, highest doses tested (10-20 μM)
  AR protein levels: decreased
[7]; after sulforaphane treatment
  onset of AR protein decline: 6 to 12 h
[7]; [9]
  AR protein: decreased
